Measurements from patent publication US10329262B2, “Quinazolinone antibiotics” (priority 2013, dated 2019).
≈ marks a conversion by molar mass, not a printed value. Where two headings read alike, the source gives them in different places.

Legend:
[1] = test system: S. aureus ATCC 29213 (MSSA); assay: MIC, CLSI broth microdilution, S. aureus ATCC 29213; assay type: cell-based, Staphylococcus aureus; settings: for MIC (w/ BSA): S. aureus ATCC 29213, in the presence of bovine serum albumin; for MIC: S. aureus strain ATCC 29213 (MSSA)
Method: (§1) MICs were evaluated following the CLSI microdilution method in BBL™ Mueller-Hinton II broth (Wikler et al., Clinical Laboratory Standards Institute Document M7-A7, 29 (2009)). Briefly, two-fold serial dilutions of compound were prepared in triplicate in 96-well plates and inoculated with 5×10^5 cfu/mL of the bacterial suspension. Plates were incubated at 37° C. for 16-20 hours.

MRSA ATCC 27660 = assay: Mouse peritonitis model of MRSA infection; assay type: in vivo, mice; settings: n = 6, 48 h
Method: We evaluated several compounds in in vivo mouse infection models, as well as in pharmacokinetic (PK) studies in mice (Table 1). The in vivo efficacy was determined using the rapid mouse peritonitis model of infection, in which the end point is death or survival in 48 hours. We initially dosed the compounds intravenously (iv) at a single dose level. If the compound has good in vivo efficacy after iv administration, we then evaluated efficacy at five dose levels. We also investigated in vivo efficacy after oral (po) administration.
Groups (n=6/group) of mice were infected with MRSA (0.5 mL of ATCC 27660 at a final concentration of 5×10^7 CFU/mL in 5% porcine mucin) intraperitoneally (ip). Following infection, mice were given iv doses by tail vein injection of compound 2, vancomycin (5 mg/kg, positive control), or vehicle at 30 min and 4.5 h after infection. The number of surviving mice was monitored for 48 h. The negative control (vehicle) typically results in the death of all mice. Quinazolinone 2 was dissolved in saline, sterile-filtered, and administered at doses of 2.5, 5, 7.5, 10, 20, and 30 mg/kg. The ED50 value was calculated using GraphPad prism 5.

Pharmacokinetics in mice = settings: Table 1, ICR female mice, single dose iv
Method: We conducted first fast PK studies (n=2 mice per time point, 5 time points) dosing the compounds iv, followed by full PK studies for selected compounds (n=3 mice per time point, 10-12 time points per route of administration, iv and po).
A single dose of compound 2 was administered to mice (n=3 per time point) by tail vein injection or by oral gavage at 10 mg/kg. Blood was collected by cardiac puncture in heparinized syringes at 2, 5, 20, and 40 min and at 1, 2, 3, 4, 8, 18, and 24 h after iv dosing and at 0.5, 1, 2, 3, 4, 6, 9, 24, and 30 h after po dosing. Blood was centrifuged to obtain plasma. A 50-μL aliquot of plasma was mixed with 100 μL of acetonitrile containing internal standard (5 μM final concentration), followed by centrifugation at 20,000 g for 15 min. The supernatant was analyzed by reverse-phase UPLC. PK parameters were calculated as described in the Plasma protein binding and Pharmacokinetics sections below (see also Gooyit et al. J. Med. Chem. 54, 6676-6690 (2011)).
The area under the concentration-time curve up to the last quantifiable sampling time (AUC0-last) was calculated by the trapezoidal rule. AUC0-∞ was calculated as AUC0-last+(Clast/k), where Clast is the concentration at the last quantifiable sampling time and k is the elimination rate constant. The concentration at time=0 (C0) was estimated from the first sampling times by back-extrapolation using log-linear regression analysis. Half-lives (t1/2α and t1/2β) were estimated from the linear portion of the initial or terminal concentration-time data by linear regression, where the slope of the line was the rate constant k and t1/2α=ln 2/k. Volume of distribution (Vd) was calculated as the dose divided by the initial concentration (C0). Clearance (CL) was calculated from the dose divided by AUC0-∞. Oral bioavailability (F) was calculated by dividing the AUCpo by the AUCiv, as equivalent iv and po doses were administered.

S. aureus VRS2 = assay: MIC, CLSI broth microdilution, S. aureus VRS2; assay type: cell-based, Staphylococcus aureus
Method: as §1

S. aureus NRS120 = assay: MIC, CLSI broth microdilution, S. aureus NRS120; assay type: cell-based, Staphylococcus aureus
Method: as §1

S. aureus NRS123 = assay: MIC, broth microdilution, S. aureus NRS123; assay type: cell-based; settings: Staphylococcus aureus
Method: as §1

S. aureus VRS1 = assay: MIC, CLSI broth microdilution, S. aureus VRS1; assay type: cell-based, Staphylococcus aureus
Method: as §1

S. aureus NRS119 = assay: MIC, CLSI broth microdilution, S. aureus NRS119; assay type: cell-based, Staphylococcus aureus
Method: as §1

[2] = test system: S. haemolyticus ATCC 29970; assay: MIC, CLSI broth microdilution, S. haemolyticus ATCC 29970; assay type: cell-based
Method: as §1

S. aureus NRS70 = assay: MIC, broth microdilution, S. aureus NRS70; assay type: cell-based, Staphylococcus aureus; settings: for MIC: Staphylococcus aureus
Method: as §1

S. aureus NRS128 = assay: MIC, CLSI broth microdilution, S. aureus NRS128; assay type: cell-based, Staphylococcus aureus; settings: Table 2.1, S. aureus NRS128
Method: as §1

S. aureus NRS100 = assay: MIC, CLSI broth microdilution, S. aureus NRS100; assay type: cell-based, Staphylococcus aureus
Method: as §1

S. aureus (ATCC 29213) = assay: Macromolecular synthesis assays; assay type: cell-based, Staphylococcus aureus; settings: Staphylococcus aureus, ATCC29213; positive control, 16 μg/mL; read-out: Inhibition of cell-wall (peptidoglycan) biosynthesis
Text: Mechanism of Action of the Quinazolinones. The mode of action of 2 was investigated by macromolecular synthesis assays in S. aureus in the logarithmic phase, which monitor incorporation of radiolabeled precursors [methyl-^3H]-thymidine, [5-^3H]-uridine, L-[4,5-^3H]-leucine, or D-[2,3-^3H]-alanine into DNA, RNA, protein, or cell wall (peptidoglycan), respectively. Inhibition of radiolabeled precursor incorporation by 2 at a concentration of half the MIC was compared with those of known inhibitors of each pathway (ciprofloxacin, rifampicin, tetracycline, and fosfomycin, respectively).
The mode of action of 2 was investigated by macromolecular synthesis assays in S. aureus in the logarithmic phase (Miller, A A et al. Antimicrob. Agents Chemother. 52, 2806-12 (2008)), which monitor incorporation of radiolabeled precursors [methyl-^3H]-thymidine, [5-^3H]-uridine, L-[4,5-^3H]-leucine, or D-[2,3-^3H]-alanine into DNA, RNA, protein, or cell wall (peptidoglycan), respectively.
The incorporation of radiolabeled precursors—[methyl-^3H]-thymidine, [5-^3H]-uridine, L-[4,5-^3H]-leucine, or D-[2,3-^3H]-alanine—into DNA, RNA, protein, or peptidoglycan, respectively, in logarithmically growing S. aureus (ATCC 29213) was measured using a previously published method, with aliquots taken every 20 min over a 120-min incubation period (Wilson et al., Antimicrob. Agents Chemother. 39, 1925-33 (1995)).

Q: For `Cc1nc2ccccc2c(=O)o1` [Compound 3], which “MIC (w/ BSA)” value [1] is on record?
A: The value was 4 µg/mL.

Q: What about the MIC [1] of the same molecule?
A: Its MIC is 0.25 µg/mL (≈ 1.55 µM).

Q: What about the “In Vivo Efficacy (survived/total mice)” value (MRSA ATCC 27660; 5 mg/kg iv at 30 min and 4.5 hr after infection) of the same molecule?
A: Its value is 1/6 @ 5 mg/kg.

Q: And the “AUC (iv)” value (Pharmacokinetics in mice)?
A: The value was “AUC = 466 μg.min/mL”.

Q: What about the CL (Pharmacokinetics in mice) of the same molecule?
A: Its CL is “CL = 10.7 mL/min/kg”.

Q: What about the Vd (Pharmacokinetics in mice) of the same molecule?
A: Its Vd is “Vd = 8.9 mL”.

Q: For `CC(=O)Nc1cccc(-n2c(/C=C/c3ccc(F)cc3)nc3ccccc3c2=O)c1` [Compound 5], which “MIC (w/ BSA)” value [1] is on record?
A: Its value is 8 µg/mL.

Q: And the MIC [1]?
A: The MIC was 1 µg/mL (≈ 2.5 µM).

Q: And the “In Vivo Efficacy (survived/total mice)” value (MRSA ATCC 27660; 10 mg/kg iv at 30 min and 4.5 hr after infection)?
A: The value was 2/6 @ 10 mg/kg.

Q: What about the “AUC (iv)” value (Pharmacokinetics in mice) of the same molecule?
A: Its value is “AUC = 284 μg.min/mL”.

Q: And the CL (Pharmacokinetics in mice)?
A: The CL was “CL = 88.2 mL/min/kg”.

Q: And the Vd (Pharmacokinetics in mice)?
A: Its Vd is “Vd = 55.0 mL”.

Q: What does the source list for `Cc1onc(-c2ccccc2)c1C(=O)N[C@@H]1C(=O)N2[C@@H]1SC(C)(C)[C@@H]2C(=O)O` [oxacillin]?
A: In vitro AB activity (MIC) ([1]; Table 2.1, S. aureus ATCC 29213): 0.25 µg/mL; MIC (S. aureus VRS2; Staphylococcus aureus, Table 2, S. aureus VRS2, read-out: MIC): 256 µg/mL (≈ 638 µM); In vitro AB activity (MIC) (S. aureus VRS2; Table 2.1, S. aureus VRS2): 256 µg/mL; MIC (S. aureus NRS120; Staphylococcus aureus, Table 2, S. aureus NRS120, read-out: MIC): 512 µg/mL (≈ 1280 µM); In vitro AB activity (MIC) (S. aureus NRS120; Table 2.1, S. aureus NRS120): 512 µg/mL; MIC (S. aureus NRS123; NRS123, Table 3, single agent, read-out: MIC NRS123): 32 µg/mL (≈ 79.7 µM); MIC (S. aureus NRS123; Table 2, S. aureus NRS123, read-out: MIC): 32 µg/mL (≈ 79.7 µM); MIC (S. aureus VRS1; Staphylococcus aureus, Table 2, S. aureus VRS1, read-out: MIC): 512 µg/mL (≈ 1280 µM); In vitro AB activity (MIC) (S. aureus VRS1; Table 2.1, S. aureus VRS1): 512 µg/mL; MIC (S. aureus NRS119; Staphylococcus aureus, Table 2, S. aureus NRS119, read-out: MIC): 512 µg/mL (≈ 1280 µM); In vitro AB activity (MIC) (S. aureus NRS119; Table 2.1, S. aureus NRS119): 512 µg/mL; MIC ([2]; Staphylococcus haemolyticus, ATCC29970, Table 2, S. haemolyticus ATCC 29970, read-out: MIC): 0.25 µg/mL (≈ 0.623 µM); In vitro AB activity (MIC) ([2]; Table 2.1, S. haemolyticus ATCC 29970): 0.25 µg/mL; MIC (S. aureus NRS70; NRS70, Table 3, single agent, read-out: MIC NRS70): 64 µg/mL (≈ 159 µM); MIC (S. aureus NRS70; Table 2, S. aureus NRS70, read-out: MIC): 32 µg/mL (≈ 79.7 µM); In vitro AB activity (MIC) (S. aureus NRS70; Table 2.1, S. aureus NRS70): 32 µg/mL; In vitro AB activity (MIC) (S. aureus NRS128): 0.5 µg/mL; MIC (S. aureus NRS100; Staphylococcus aureus, Table 2, S. aureus NRS100, read-out: MIC): 512 µg/mL (≈ 1280 µM); In vitro AB activity (MIC) (S. aureus NRS100; Table 2.1, S. aureus NRS100): 512 µg/mL

Q: With `C[C@@H]1O[C@@H]1P(=O)(O)O` [fosfomycin, reference compound] as the molecule, how does the inhibition at 16 µg/mL (S. aureus (ATCC 29213)) read?
A: The inhibition at 16 µg/mL was 64 ± 8%.
